Assay results reported in US20040229268A1, “Method and kit for identifying antibiotic-resistant microorganisms” (priority 2003, published 2004).

Assays:
[1] = test system: mecA gene; Staphylococcus spp. and S. aureus ribosomal nucleic acids; test: HPA probe panel on clinical and ATCC isolates (Examples 8-9); format: binding
Method: Oxacillin MIC results were provided by an outside laboratory. The GP Probe results were determined as described in Example 8.

[2] = test system: mecA gene; Staphylococcus ribosomal nucleic acids; test: HPA after thermal lysis, base hydrolysis and neutralization (Examples 5-7); format: binding, S. aureus
Method: The cultured S. aureus specimens were lysed by suspending 1 μl loops of bacteria in 150 μl of lysis buffer and then incubating at 105° C. for 15 minutes. Next, 100 μl of 2 N LiOH base solution was added and RNA was hydrolyzed by incubating the mixtures at 60° C. for 15 minutes. Hydrolyzed samples were neutralized by the addition of 100 μl of a neutralizing reagent that included 2 N HCl and 100 mM succinate buffer (pH 5.5 prior to acidification with HCl). Specifically hybridized probe was detected by standard HPA, essentially as described in Example 1.
Specimens (1 μl loops of bacteria) were treated and tested essentially as described in Example 5 with the following differences: incubation for lysis was for 15 minutes and incubation for hybridization was for 45 minutes for samples shown in Tables 7-8, while incubation for lysis was for 10 minutes and incubation for hybridization was for 20 minutes for samples shown in Table 9. All of the base-treated solutions were neutralized by the addition of 250 μl of 0.8 N HCl containing 100 mM succinate.
2′-methoxy analogs of the AE-labeled DNA probes were prepared by standard phosphoramidite synthesis using 2′ methoxy phosphoramidite analogs. Additional linker positions, which are indicated by parentheses in Table 11, for probe 2 were also prepared for testing. Deoxy probes and 2′-methoxy probe analogs were tested essentially as described in Example 5, except as noted below. Probes synthesized using 2′-methoxy nucleotide analogs are particularly identified by the “MeO” designations. Brief summaries of the procedures used to obtain the results are appended to the tables.

[3] = Table 8, lysis 15 minutes, hybridization 45 minutes
[4] = Table 9, lysis 10 minutes, hybridization 20 minutes
[5] = Table 11, neutralize 250 μl 0.8 N HCl containing 100 mM succinate, hybridize 45 minutes at 60° C.
[6] = Table 7, lysis 15 minutes, hybridization 45 minutes
[7] = Table 10, neutralize 100 μl 2 N HCl containing 200 mM succinate, hybridize 45 minutes at 60° C.

Substance: CCGAACTGAGAACAACTTTATGGGATTTGC (chemistry not given here) [Staphylococcus spp. probe with helpers]
- HPA Results (# positive for indicated probes) ([1]; ATCC MRSA, 1 isolate, Oxacillin MIC 16 μg/ml): 1
- HPA Results (# positive for indicated probes) ([1]; ATCC MSSA, 1 isolate, Oxacillin MIC 1 μg/ml): 1
- HPA Results (# positive for indicated probes) ([1]; ATCC MSSA, 4 isolates, Oxacillin MIC 0.5 μg/ml): 4
- HPA Results (# positive for indicated probes) ([1]; ATCC MSSA, 6 isolates, Oxacillin MIC ≦0.25 μg/ml): 6
- HPA Results (# positive for indicated probes) ([1]; Clinical MRSA, 8 isolates, Oxacillin MIC 16 μg/ml): 8
- HPA Results (# positive for indicated probes) ([1]; Clinical MRSA, 107 isolates, Oxacillin MIC >16 μg/ml): 107
- HPA Results (# positive for indicated probes) ([1]; Clinical MSSA, 28 isolates, Oxacillin MIC 0.5 μg/ml): 28
- HPA Results (# positive for indicated probes) ([1]; Clinical MSSA, 99 isolates, Oxacillin MIC ≦0.25 μg/ml): 99
- HPA Results (RLU) ([1]; GP21 (S. aureus, mecA(−), MSSA)): 373232 RLU
- HPA Results (RLU) ([1]; GP22 (CoNS, mecA(+))): 225141 RLU
- HPA Results (RLU) ([1]; GP23 (S. aureus, mecA(−))): 301657 RLU
- HPA Results (RLU) ([1]; GP24 (S. aureus, mecA(+))): 306718 RLU
- HPA Results (RLU) ([1]; GP25 (S. aureus, mecA(+))): 456426 RLU
- HPA Results (RLU) ([1]; GP26 (S. aureus, mecA(−))): 262267 RLU
- HPA Results (RLU) ([1]; GP27 (CoNS, mecA(−))): 182304 RLU
- HPA Results (RLU) ([1]; GP28 (S. aureus, mecA(−))): 246636 RLU
- HPA Results (RLU) ([1]; GP29 (S. aureus, mecA(+))): 388748 RLU
- HPA Results (RLU) ([1]; GP30 (S. aureus, mecA(−))): 440128 RLU
- HPA Results (RLU) ([1]; GP31 (S. aureus, mecA(+))): 349207 RLU
- HPA Results (RLU) ([1]; GP32 (S. aureus, mecA(−))): 432041 RLU
- HPA Results (RLU) ([1]; GP33 (S. aureus, mecA(+))): 160830 RLU
- HPA Results (RLU) ([1]; GP34 (S. aureus, mecA(−))): 634079 RLU
- HPA Results (RLU) ([1]; GP35 (S. aureus, mecA(+))): 543089 RLU
- HPA Results (RLU) ([1]; GP36 (S. aureus, mecA(−))): 370898 RLU
- HPA Results (RLU) ([1]; GP37 (S. aureus, mecA(+))): 397722 RLU
- HPA Results (RLU) ([1]; GP38 (S. aureus, mecA(+))): 387613 RLU
- HPA Results (RLU) ([1]; GP39 (S. aureus, mecA(−))): 280358 RLU
- HPA Results (RLU) ([1]; GP40 (S. aureus, mecA(−))): 292407 RLU
- HPA Results (RLU) ([1]; Neg Control (Hybridization Buffer)): 1775 RLU
- HPA Results (RLU) ([1]; Pos Control GP1217 (S. aureus, mecA(+), MRSA)): 170530 RLU
- HPA Results (# positive for indicated probes) ([1]; S. epidermidis, 1 isolate, Oxacillin MIC >16 μg/ml): 1
- HPA Results (# positive for indicated probes) ([1]; S. epidermidis, 2 isolates, Oxacillin MIC ≦0.25 μg/ml): 2
- HPA Results (# positive for indicated probes) ([1]; S. hemoliticus, 1 isolate, Oxacillin MIC ≦0.25 μg/ml): 1
- HPA Results (# positive for indicated probes) ([1]; S. hominis, 1 isolate, Oxacillin MIC ≦0.25 μg/ml): 1
- HPA Results (# positive for indicated probes) ([1]; S. hyicus-hyicus, 1 isolate, Oxacillin MIC ≦0.25 μg/ml): 1
- HPA Results (# positive for indicated probes) ([1]; S. intermedius, 1 isolate, Oxacillin MIC ≦0.25 μg/ml): 1
- HPA Results (# positive for indicated probes) ([1]; S. saprophyticus, 1 isolate, Oxacillin MIC 0.5 μg/ml): 1
- HPA Results (# positive for indicated probes) ([1]; S. simulans, 1 isolate, Oxacillin MIC ≦0.25 μg/ml): 1
- HPA Results (# positive for indicated probes) ([1]; S. warneri, 1 isolate, Oxacillin MIC ≦0.25 μg/ml): 1
- RLU ([2]; Table 6, GP18(Neg), MSSA ATCC #12600): 170,434 RLU
- RLU ([2]; Table 6, GP1214(Neg), MSSA ATCC #29247): 234,286 RLU
- RLU ([2]; Table 6, GP1217(Pos), MRSA ATCC #33591): 225,772 RLU
- RLU ([2]; Table 6, GP1218(Pos), MRSA ATCC #43866): 203,488 RLU

Substance: GCGATAATGGTGAAGTAGAAATGACTGAACGTCCG (DNA, backbone and methylation of C not given here; acridinium ester label on internal non-nucleotide linker; listed as Staphylococcus aureus) [probe 3]
- GP18(Neg) RLU [2, 3]: 371 RLU
- GP1217(Pos) RLU [2, 3]: 36123 RLU
- Probe alone Avg RLU [2, 3]: 445 RLU
- GP1217(Pos) RLU [2, 4]: 46566 RLU
- Probe alone Avg RLU [2, 4]: 684 RLU
- GP1214(Neg) RLU [2, 5]: 1303 RLU
- GP1217(Pos) RLU [2, 5]: 36993 RLU
- Probe alone Avg RLU [2, 5]: 1098 RLU

Substance: GCTCCAACATGAAGATGGCTATCGTGTCACAATCG (DNA, backbone and methylation of C not given here; acridinium ester label on internal non-nucleotide linker; listed as Staphylococcus aureus) [probe 5]
- GP18(Neg) RLU [2, 6]: 1250 RLU
- GP1217(Pos) RLU [2, 6]: 37472 RLU
- Probe alone Avg RLU [2, 6]: 4088 RLU
- GP1217(Pos) RLU [2, 4]: 42816 RLU
- Probe alone Avg RLU [2, 4]: 2823 RLU

Substance: MeO-probe 1: 2′-methoxy analog of AE-labeled probe 1 (SEQ ID NO:1) (DNA GGTATGTGGAAGTTAGATTGGGATCATAGCG; all 2'-O-methyl, backbone and T or U not given here; acridinium ester label on internal non-nucleotide linker; listed as Staphylococcus aureus)
- GP1214(Neg) RLU [2, 7]: 2308 RLU
- GP1217(Pos) RLU [2, 7]: 62594 RLU
- Probe alone Avg RLU [2, 7]: 1879 RLU
- GP1214(Neg) RLU [2, 5]: 975 RLU
- GP1217(Pos) RLU [2, 5]: 33659 RLU
- Probe alone Avg RLU [2, 5]: 779 RLU

Substance: MeO-probe 2: 2′-methoxy analog of AE-labeled probe 2 (SEQ ID NO:2); linker position not printed in Table 10 (DNA CGCTATGATCCCAATCTAACTTCCACATACC; all 2'-O-methyl, backbone and T or U not given here; acridinium ester label on internal non-nucleotide linker; listed as Staphylococcus aureus)
- GP1214(Neg) RLU [2, 7]: 5242 RLU
- GP1217(Pos) RLU [2, 7]: 69687 RLU
- Probe alone Avg RLU [2, 7]: 2378 RLU
